Data from ChEMBL document CHEMBL4346735, “Discovery and pharmacological evaluation of indole derivatives as potent and selective RORγt inverse agonist for multiple autoimmune conditions” (Bioorg Med Chem Lett, 2019).

How the values were obtained:
[1] = AUC (0 to 24 hrs) in Sprague-Dawley rat at 10 mg/kg, po via gavage measured up to 24 hrs by LC-MS/MS analysis; type: ADME, organism-based; design: time < 24 hr, dose 10 mg/kg, route oral; conditions: in vivo
[2] = AUC (0 to infinity) in Balb/c mouse at 3 mg/kg, iv; type: ADME, organism-based; design: dose 3 mg/kg, route intravenous, time infinity; conditions: in vivo
[3] = Cmax in Sprague-Dawley rat at 10 mg/kg, po via gavage measured up to 24 hrs by LC-MS/MS analysis; type: ADME, organism-based; design: dose 10 mg/kg, route oral; conditions: in vivo
[4] = AUC (0 to 24 hrs) in Sprague-Dawley rat at 3 mg/kg, iv administered as single dose measured up to 24 hrs by LC-MS/MS analysis; type: ADME, organism-based; design: time < 24 hr, dose 3 mg/kg, route intravenous; conditions: in vivo
[5] = Volume of distribution at steady state in Balb/c mouse at 3 mg/kg, iv; type: ADME, organism-based; conditions: in vivo, read-out: Vdss
[6] = Half life in Balb/c mouse at 10 mg/kg, po; type: ADME, organism-based; conditions: in vivo
[7] = Oral bioavailability in Balb/c mouse at 10mg/kg; type: ADME, organism-based; conditions: in vivo
[8] = AUC (0 to 24 hrs) in Balb/c mouse at 10 mg/kg, po; type: ADME, organism-based; design: time < 24 hr, dose 10 mg/kg, route oral; conditions: in vivo
[9] = Half life in Balb/c mouse at 3 mg/kg, iv; type: ADME, organism-based; conditions: in vivo
[10] = AUC (0 to infinity) in Sprague-Dawley rat at 3 mg/kg, iv administered as single dose measured up to 24 hrs by LC-MS/MS analysis; type: ADME, organism-based; design: dose 3 mg/kg, time infinity, route intravenous; conditions: in vivo
[11] = Half life in Sprague-Dawley rat at 10 mg/kg, po via gavage measured up to 24 hrs by LC-MS/MS analysis; type: ADME, organism-based; conditions: in vivo
[12] = Volume of distribution at steady state in Sprague-Dawley rat at 3 mg/kg, iv administered as single dose measured up to 24 hrs by LC-MS/MS analysis; type: ADME, organism-based; conditions: in vivo, read-out: Vdss
[13] = Tmax in Sprague-Dawley rat at 10 mg/kg, po via gavage measured up to 24 hrs by LC-MS/MS analysis; type: ADME, organism-based; conditions: in vivo
[14] = Tmax in Balb/c mouse at 10 mg/kg, po; type: ADME, organism-based; conditions: in vivo
[15] = AUC (0 to infinity) in Balb/c mouse at 10 mg/kg, po; type: ADME, organism-based; design: dose 10 mg/kg, time infinity, route oral; conditions: in vivo
[16] = Half life in Sprague-Dawley rat at 3 mg/kg, iv administered as single dose measured up to 24 hrs by LC-MS/MS analysis; type: ADME, organism-based; conditions: in vivo
[17] = Clearance in Balb/c mouse at 3 mg/kg, iv; type: ADME, organism-based; conditions: in vivo
[18] = Oral bioavailability in Sprague-Dawley rat at 10mg/kg via gavage measured up to 24 hrs by LC-MS/MS analysis; type: ADME, organism-based; conditions: in vivo
[19] = Cmax in Balb/c mouse at 10 mg/kg, po; type: ADME, organism-based; design: dose 10 mg/kg, route oral; conditions: in vivo
[20] = AUC (0 to infinity) in Sprague-Dawley rat at 10 mg/kg, po via gavage measured up to 24 hrs by LC-MS/MS analysis; type: ADME, organism-based; design: dose 10 mg/kg, time infinity, route oral; conditions: in vivo
[21] = Clearance in Sprague-Dawley rat at 3 mg/kg, iv administered as single dose measured up to 24 hrs by LC-MS/MS analysis; type: ADME, organism-based; conditions: in vivo
[22] = AUC (0 to 24 hrs) in Balb/c mouse at 3 mg/kg, iv; type: ADME, organism-based; design: time < 24 hr, dose 3 mg/kg, route intravenous; conditions: in vivo
Mus musculus [23] = experiment: Immunosuppressive activity in MOG (35 to 55 residues)/pertussis toxin-induced experimental allergic encephalomyelitis C57BL/6J mouse model assessed as reduction in disease severity score at 15 mg/kg, po bid measured at day 23 relative to dexamethasone; type: functional; conditions: 552 h
Mus musculus [24] = experiment: Inhibition of anti-CD3-induced IL-17A level in Balb/c mouse plasma at 5 mg/kg, po treated prior to stimulation with anti-CD3 for 3 hrs relative to control; type: functional

## O=C([O-])c1ccc(-n2cc(C(=O)c3c(Cl)cccc3Cl)c3cccc(F)c32)cc1.[Na+]
[1]
  AUC(0-t) at 24 h: 6.7 µM·h
[2]
  AUC(0-inf): 4.6 µM·h
[3]
  Cmax: 3 µM
[4]
  AUC(0-t) at 24 h: 3.69 µM·h
[5]
  Vd: 4.3 L/kg
[6]
  half-life: 3.5 h
[7]
  bioavailability: 91%
[8]
  AUC(0-t) at 24 h: 12.6 µM·h
[9]
  half-life: 2.7 h
[10]
  AUC(0-inf): 4.11 µM·h
[11]
  half-life: 2.54 h
[12]
  Vd: 4.32 L/kg
[13]
  Tmax: 0.5 h
[14]
  Tmax: 0.5 h
[15]
  AUC(0-inf): 12.7 µM·h
[16]
  half-life: 3.47 h
[17]
  clearance: 25.2 mL/min/kg
[18]
  bioavailability: 50%
[19]
  Cmax: 7 µM
[20]
  AUC(0-inf): 7.59 µM·h
[21]
  clearance: 28.9 mL/min/kg
[22]
  AUC(0-t) at 24 h: 4.2 µM·h

## C[S+](C)[O-] [DIMETHYL SULFOXIDE]
Mus musculus [23]
  inhibition in vivo at 15 mg/kg: 15%

## C[C@@H]1C[C@H]2[C@@H]3CCC4=CC(=O)C=C[C@]4(C)[C@@]3(F)[C@@H](O)C[C@]2(C)[C@@]1(O)C(=O)CO [DEXAMETHASONE]
Mus musculus [24]
  inhibition in vivo at 5 mg/kg: 51%
